# Results published in patent publication US20250313548A1 (Actio Biosciences, Inc., priority 2023, published 2025).
# Target: human, KCNT1 (Homo sapiens (Human), UniProt Q5JUK3)
# Experiment: FLIPR Tl/K Flux Assay
# Type: cell-based
# Conditions: HEK293 cells stably expressing human KCNT1; Tl+ flux stimulated with EC80 of agonist Loxapine
# Outline: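 HEK293 cells stably expressing human KCNT1 were loaded with FLIPR potassium dye in HEPES/HBSS pH 7.4 with 5 mM probenecid, 1 h at 25 °C, then given test compound for 30 min at 25 °C. Tl+ flux was triggered with chloride-free buffer containing Tl+ and EC80 loxapine and read 160 s. IC50 came from Hill fits of % inhibition.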
# Chain of human, KCNT1 (Q5JUK3 whole entry): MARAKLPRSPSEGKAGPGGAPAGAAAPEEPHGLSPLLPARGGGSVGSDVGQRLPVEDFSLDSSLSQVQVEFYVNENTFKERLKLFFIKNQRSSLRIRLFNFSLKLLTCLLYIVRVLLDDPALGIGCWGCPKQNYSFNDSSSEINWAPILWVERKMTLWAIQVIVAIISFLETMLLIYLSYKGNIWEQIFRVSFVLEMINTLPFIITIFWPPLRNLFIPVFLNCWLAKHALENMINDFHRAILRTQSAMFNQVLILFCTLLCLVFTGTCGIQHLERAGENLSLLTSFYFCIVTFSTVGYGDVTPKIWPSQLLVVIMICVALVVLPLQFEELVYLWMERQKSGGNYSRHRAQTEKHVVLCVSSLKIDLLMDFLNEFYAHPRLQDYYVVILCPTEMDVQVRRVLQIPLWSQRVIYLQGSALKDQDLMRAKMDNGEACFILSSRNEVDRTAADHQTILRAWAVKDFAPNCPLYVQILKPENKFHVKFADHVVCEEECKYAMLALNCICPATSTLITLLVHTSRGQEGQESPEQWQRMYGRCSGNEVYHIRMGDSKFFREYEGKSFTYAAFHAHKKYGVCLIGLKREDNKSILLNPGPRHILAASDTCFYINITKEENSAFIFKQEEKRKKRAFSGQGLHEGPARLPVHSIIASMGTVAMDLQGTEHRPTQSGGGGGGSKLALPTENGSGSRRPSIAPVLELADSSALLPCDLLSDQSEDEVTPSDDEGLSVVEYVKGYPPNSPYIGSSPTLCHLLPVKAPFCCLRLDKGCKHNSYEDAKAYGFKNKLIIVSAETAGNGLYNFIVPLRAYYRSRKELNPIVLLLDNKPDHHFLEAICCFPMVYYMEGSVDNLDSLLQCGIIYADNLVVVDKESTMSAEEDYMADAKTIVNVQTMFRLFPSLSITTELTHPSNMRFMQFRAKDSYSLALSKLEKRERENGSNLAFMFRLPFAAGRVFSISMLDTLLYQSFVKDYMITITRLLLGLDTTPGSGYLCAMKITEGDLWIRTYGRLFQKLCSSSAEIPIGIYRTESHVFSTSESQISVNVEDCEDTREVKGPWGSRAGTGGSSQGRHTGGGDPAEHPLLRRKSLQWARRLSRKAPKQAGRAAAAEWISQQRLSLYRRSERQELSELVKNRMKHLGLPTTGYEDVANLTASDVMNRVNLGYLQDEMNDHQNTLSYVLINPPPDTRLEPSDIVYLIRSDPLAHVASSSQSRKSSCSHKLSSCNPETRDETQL
row,IC50,Structure (SMILES)
1,< 250 nM,N#Cc1cc(Cl)cc(C(=O)N[C@H]2CCCn3nc(-c4ccnc(C(F)(F)F)c4)cc32)c1 [Compound I-458a]
2,< 250 nM,Cn1nc(C(F)(F)F)cc1C(=O)N[C@H]1CCCn2nc(-c3ccnc(C4(C)CC4)c3)cc21 [Compound I-459a]
3,> 1000 nM,Cn1nc(C(F)(F)F)cc1C(=O)N[C@H]1CCc2ncc(-c3ccnc(C(F)(F)F)c3)cc21 [Compound I-460a]
4,< 250 nM,O=C(N[C@H]1CCCc2cnc(-c3ccnc(C(F)(F)F)c3)cc21)c1cc(F)cc(F)c1 [Compound I-461a]
5,< 250 nM,O=C(N[C@H]1CCc2nn(-c3ccnc(C4CC4)c3)cc21)c1cc(F)cc(F)c1 [Compound I-462a]
6,> 1000 nM,N#Cc1cccc(C(=O)NC2CCCCC3NC(c4ccnc(C(F)(F)F)c4)=NC23)c1 (stereo not shown) [Compound I-463]
7,> 1000 nM,COc1cc(C2=NC3C(NC(=O)c4cccc(C#N)c4)CCCCC3N2)ccn1 (stereo not shown) [Compound I-464]
8,< 250 nM,Cn1nc(C(F)(F)F)cc1C(=O)NC1CCCn2nc(-c3ccnc(C(F)(F)F)c3)cc2C1 (stereo not shown) [Compound I-465]
9,< 250 nM,Cn1nc(C(F)(F)F)cc1C(=O)NC1CCn2nc(-c3ccnc(C(F)(F)F)c3)cc2C1 (stereo not shown) [Compound I-468]
10,< 250 nM,Cn1nc(C(F)(F)F)cc1C(=O)NC1Cc2cc(-c3ccnc(C(F)(F)F)c3)nn2C1 (stereo not shown) [Compound I-469]
11,< 250 nM,N#Cc1cc(F)cc(C(=O)N[C@@H]2CCCCn3nc(-c4ccnc(C5CC5)c4)cc32)c1 [Compound I-470b]
12,500 to 1000 nM,COc1cc(-c2nc3c(o2)CCC[C@H]3NC(=O)c2cncc(C(F)(F)F)n2)ccn1 [Compound I-471b]
13,> 1000 nM,Cc1cnc(C(F)(F)F)cc1-c1cc2n(n1)CC[C@H]2NC(=O)c1cc(C(F)(F)F)nn1C [Compound I-472b]
14,> 1000 nM,COc1cc(-c2nc3n(n2)CCC[C@H]3NC(=O)c2cc(C(F)(F)F)nn2C)ccn1 [Compound I-474b]
15,> 1000 nM,Cn1nc(C(F)(F)F)cc1C(=O)N[C@@H]1CCCc2cc(-c3ccnc(C(F)(F)F)c3)[nH]c21 [Compound I-475b]
16,250 to 500 nM,Cn1nc(C(F)(F)F)cc1C(=O)N[C@@H]1CCCCn2nc(-c3cc(C(F)(F)F)ncc3F)cc21 [Compound I-476b]
17,< 250 nM,N#Cc1cccc(C(=O)NC2CCCCC3OC(c4ccnc(C(F)(F)F)c4)=NC23)c1 (stereo not shown) [Compound I-477]
18,< 250 nM,O=C(NC1CCc2cnc(-c3ccnc(C(F)(F)F)c3)cc21)c1cc(F)cc(F)c1 (stereo not shown) [Compound I-478]
19,500 to 1000 nM,Cn1nc(C(F)(F)F)nc1C(=O)N[C@@H]1CCn2nc(-c3ccnc(C(C)(F)F)c3)cc21 [Compound I-480b]
20,250 to 500 nM,Cn1nc(C(F)(F)F)nc1C(=O)N[C@@H]1CCn2nc(-c3cc(C(F)(F)F)ncc3Cl)cc21 [Compound I-481b]
21,500 to 1000 nM,Cc1cnc(C(F)(F)F)cc1-c1cc2n(n1)CC[C@H]2NC(=O)c1nc(C(F)(F)F)nn1C [Compound I-482b]
22,< 250 nM,"Cn1nc(C(F)(F)F)nc1C(=O)N[C@H]1CCn2nc(-c3cc(C4CC4)ncc3F)cc21 [Compound I-483a, (S)—N-(2-(2-Cyclopropyl-5-fluoropyridin-4-yl)-5,6-dihydro-4H-pyrrolo[1,2-b]pyrazol-4-yl)-1-methyl-3-(trifluoromethyl)-1H-1,2,4-triazole-5-carboxamide]"

row,IC50,Structure (SMILES)
1,< 250 nM,"O=C(N[C@H]1CCn2nc(-c3ccnc(C(F)(F)F)c3)cc21)c1cn(C(F)(F)F)nc1C(F)F [Compound I-484a, (S)-3-(Difluoromethyl)-1-(trifluoromethyl)-N-(2-(2-(trifluoromethyl)pyridin-4-yl)-5,6-dihydro-4H-pyrrolo[1,2-b]pyrazol-4-yl)-1H-pyrazole-4-carboxamide]"
2,< 250 nM,COc1cc(C(=O)N[C@@H]2CCn3nc(-c4cc(C(F)(F)F)ncc4F)cc32)ccn1 [Compound I-485b]
3,250 to 500 nM,Cc1cc(C#N)cc(C(=O)N[C@@H]2CCn3nc(-c4cc(C(F)(F)F)ncc4F)cc32)c1 [Compound I-486b]
4,< 250 nM,"O=C(N[C@H]1CCn2nc(-c3ccnc(C(F)(F)F)c3)cc21)C12CC(F)(C1)C2 [Compound I-489a, (S)-3-Fluoro-N-(2-(2-(trifluoromethyl)pyridin-4-yl)-5,6-dihydro-4H-pyrrolo[1,2-b]pyrazol-4-yl)bicyclo[1.1.1]pentane-1-carboxamide]"
5,< 250 nM,"O=C(N[C@H]1CCn2nc(-c3ccnc(C(F)(F)F)c3)cc21)C12CC(Cl)(C1)C2 [Compound I-490a, (S)-3-Chloro-N-(2-(2-(trifluoromethyl)pyridin-4-yl)-5,6-dihydro-4H-pyrrolo[1,2-b]pyrazol-4-yl)bicyclo[1.1.1]pentane-1-carboxamide]"
6,500 to 1000 nM,"N#CC12CC(C(=O)N[C@H]3CCn4nc(-c5ccnc(C(F)(F)F)c5)cc43)(C1)C2 [Compound I-491a, (S)-3-Cyano-N-(2-(2-(trifluoromethyl)pyridin-4-yl)-5,6-dihydro-4H-pyrrolo[1,2-b]pyrazol-4-yl)bicyclo[1.1.1]pentane-1-carboxamide]"
7,< 250 nM,"Cc1cnc(C2CC2)cc1-c1cc2n(n1)CC[C@@H]2NC(=O)c1nc(C(F)(F)F)nn1C [Compound I-492a, (S)-N-(2-(2-Cyclopropyl-5-methylpyridin-4-yl)-5,6-dihydro-4H-pyrrolo[1,2-b]pyrazol-4-yl)-1-methyl-3-(trifluoromethyl)-1H-1,2,4-triazole-5-carboxamide]"
8,< 250 nM,"O=C(N[C@H]1CCn2nc(-c3cc(C(F)(F)F)ncc3F)cc21)C12CC(C(F)(F)F)(C1)C2 [Compound I-493a, (S)-N-(2-(5-Fluoro-2-(trifluoromethyl)pyridin-4-yl)-5,6-dihydro-4H-pyrrolo[1,2-b]pyrazol-4-yl)-3-(trifluoromethyl)bicyclo[1.1.1]pentane-1-carboxamide]"
9,< 250 nM,"O=C(N[C@H]1CCn2nc(-c3ccnc(C4CC4)c3)cc21)C12CC(C(F)(F)F)(C1)C2 [Compound I-494a, (S)-N-(2-(2-Cyclopropylpyridin-4-yl)-5,6-dihydro-4H-pyrrolo[1,2-b]pyrazol-4-yl)-3-(trifluoromethyl)bicyclo[1.1.1]pentane-1-carboxamide]"
10,< 250 nM,"Cn1nc(C(F)(F)F)nc1C(=O)N[C@H]1CCCn2nc(-c3cc(C4CC4)ncc3F)cc21 [Compound I-495a, (S)-N-(2-(2-Cyclopropyl-5-fluoropyridin-4-yl)-4,5,6,7-tetrahydropyrazolo[1,5-a]pyridin-4-yl)-1-methyl-3-(trifluoromethyl)-1H-1,2,4-triazole-5-carboxamide]"
11,< 250 nM,"O=C(N[C@H]1CCCn2nc(-c3ccnc(C4CC4)c3)cc21)c1ccnc(C(F)(F)F)c1 [Compound I-496a, (S)-N-(2-(2-Cyclopropylpyridin-4-yl)-4,5,6,7-tetrahydropyrazolo[1,5-a]pyridin-4-yl)-2-(trifluoromethyl)isonicotinamide]"
12,< 250 nM,"O=C(N[C@H]1CCCn2nc(-c3ccnc(C(F)(F)F)c3)cc21)c1cn(C(F)(F)F)nc1C(F)F [Compound I-497a, (S)-3-(Difluoromethyl)-1-(trifluoromethyl)-N-(2-(2-(trifluoromethyl)pyridin-4-yl)-4,5,6,7-tetrahydropyrazolo[1,5-a]pyridin-4-yl)-1H-pyrazole-4-carboxamide]"
13,< 250 nM,"O=C(N[C@H]1CCCn2nc(-c3cc(C4CC4)ncc3F)cc21)c1ccnc(OC(F)(F)F)c1 [Compound I-498a, (S)-N-(2-(2-Cyclopropyl-5-fluoropyridin-4-yl)-4,5,6,7-tetrahydropyrazolo[1,5-a]pyridin-4-yl)-2-(trifluoromethoxy)isonicotinamide]"
14,< 250 nM,"Cn1nc(C(F)(F)F)nc1C(=O)N[C@H]1CCCn2nc(-c3ccnc(C4CC4)c3)cc21 [Compound I-499a, (S)-N-(2-(2-Cyclopropylpyridin-4-yl)-4,5,6,7-tetrahydropyrazolo[1,5-a]pyridin-4-yl)-1-methyl-3-(trifluoromethyl)-1H-1,2,4-triazole-5-carboxamide]"
15,< 250 nM,"CC(F)(F)c1cc(-c2cc3n(n2)CCC[C@@H]3NC(=O)c2ccnc(C(F)(F)F)c2)ccn1 [Compound I-500a, (S)-N-(2-(2-(1,1-Difluoroethyl)pyridin-4-yl)-4,5,6,7-tetrahydropyrazolo[1,5-a]pyridin-4-yl)-2-(trifluoromethyl)isonicotinamide]"
16,< 250 nM,"O=C(N[C@H]1CCCn2nc(-c3ccnc(C(F)(F)F)c3)cc21)C12CC(C(F)(F)F)(C1)C2 [Compound I-501a, (S)-3-(Trifluoromethyl)-N-(2-(2-(trifluoromethyl)pyridin-4-yl)-4,5,6,7-tetrahydropyrazolo[1,5-a]pyridin-4-yl)bicyclo[1.1.1]pentane-1-carboxamide]"
17,> 1000 nM,O=C(N[C@@H]1CCCn2nc(-c3cc(C(F)(F)F)ncc3F)nc21)c1cncc(C(F)(F)F)n1 [Compound I-502b]
18,> 1000 nM,COc1cc(-c2nc3c(o2)CCC[C@H]3NC(=O)c2cncc(C(F)(F)F)n2)c(F)cn1 [Compound I-503b]
19,> 1000 nM,Cn1nc(C(F)(F)F)nc1C(=O)N[C@@H]1CCCc2oc(-c3ccnc(C4CC4)c3)nc21 [Compound I-504b]
20,< 250 nM,"O=C(N[C@H]1CCCc2oc(-c3ccnc(C4CC4)c3)nc21)c1cn(C(F)(F)F)nc1C(F)F [Compound I-505a, (S)—N-(2-(2-Cyclopropylpyridin-4-yl)-4,5,6,7-tetrahydrobenzo[d]oxazol-4-yl)-3-(difluoromethyl)-1-(trifluoromethyl)-1H-pyrazole-4-carboxamide]"
21,< 250 nM,"O=C(N[C@H]1CCCc2oc(-c3ccnc(C(F)(F)F)c3)nc21)c1cn(C(F)(F)F)nc1C(F)F [Compound I-506a, (S)-3-(Difluoromethyl)-1-(trifluoromethyl)-N-(2-(2-(trifluoromethyl)pyridin-4-yl)-4,5,6,7-tetrahydrobenzo[d]oxazol-4-yl)-1H-pyrazole-4-carboxamide]"
